According to patent publication US9598423B2 (BRISTOL-MYERS SQUIBB COMPANY, priority 2013, dated 2017):
Read-outs that look alike come from different tables or passages of the source.

Experiments:
CK1ε = CK1ε (Homo sapiens (Human), UniProt P49674); test: CK1ε kinase assay (Caliper LABCHIP electrophoretic separation of fluoresceinated peptide substrate and product); assay type: biochemical; conditions: read-out: CK1ε (IC50)
Summary of the method: (§1)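 Kinase reactions ran 22 h at room temperature, were stopped with EDTA, and phosphorylated product was separated electrophoretically from unphosphorylated fluoresceinated peptide. Compounds were tested at eleven concentrations from 10 mM DMSO stocks. IC50 by non-linear regression.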

CK1δ = CK1δ (Homo sapiens (Human), UniProt P48730); test: CK1δ kinase assay (Caliper LABCHIP electrophoretic separation of fluoresceinated peptide substrate and product); assay type: biochemical; conditions: 200 pM CK1δ, 50 μM ATP, 1.5 μM peptide substrate, 22 hours at room temperature; read-out: CK1δ (IC50)
Summary of the method: as §1

[1] = 200 pM CK1ε, 50 μM ATP, 1.5 μM peptide substrate, 22 hours at room temperature

Sequence of CK1ε (P49674 whole entry): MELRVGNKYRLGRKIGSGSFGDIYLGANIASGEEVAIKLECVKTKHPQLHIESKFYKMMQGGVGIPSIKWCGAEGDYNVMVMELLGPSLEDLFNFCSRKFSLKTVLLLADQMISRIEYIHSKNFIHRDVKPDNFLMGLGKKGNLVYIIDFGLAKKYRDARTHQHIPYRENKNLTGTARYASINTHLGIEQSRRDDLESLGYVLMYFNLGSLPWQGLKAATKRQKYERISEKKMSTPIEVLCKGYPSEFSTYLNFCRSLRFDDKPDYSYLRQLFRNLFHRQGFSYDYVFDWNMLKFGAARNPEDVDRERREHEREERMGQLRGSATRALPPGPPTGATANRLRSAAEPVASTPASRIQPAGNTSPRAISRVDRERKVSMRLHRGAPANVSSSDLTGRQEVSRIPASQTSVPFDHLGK
Sequence of CK1δ (P48730 whole entry): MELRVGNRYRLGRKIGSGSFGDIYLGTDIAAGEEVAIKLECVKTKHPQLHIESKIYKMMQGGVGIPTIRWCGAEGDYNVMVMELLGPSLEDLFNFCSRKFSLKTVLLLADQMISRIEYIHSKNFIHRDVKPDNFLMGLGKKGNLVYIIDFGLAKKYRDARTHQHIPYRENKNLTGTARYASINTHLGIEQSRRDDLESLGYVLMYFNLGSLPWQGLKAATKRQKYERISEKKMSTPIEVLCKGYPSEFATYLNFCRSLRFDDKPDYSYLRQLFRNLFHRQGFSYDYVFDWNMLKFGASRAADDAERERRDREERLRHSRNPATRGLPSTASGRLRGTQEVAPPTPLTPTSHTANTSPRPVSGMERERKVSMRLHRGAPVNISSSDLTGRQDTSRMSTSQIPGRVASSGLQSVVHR

Structure (SMILES) | IC50 (CK1ε; [1]) | IC50 (CK1δ) | IC50 (CK1ε)
Cc1ccc(-c2nn3c(c2C(N)=O)CN(C(=O)Nc2ccc4c(c2)CS(=O)(=O)C4)CC3)cc1Cl [Compound 251, 2-(3-Chloro-4-methylphenyl)-N^5-(2,2-dioxido-1,3-dihydrobenzo[c]thiophen-5-yl)-6,7-dihydropyrazolo[1,5-a] pyrazine-3,5(4H)-dicarboxamide] | 0.01 to 10 nM | 0.01 to 10 nM | –
Cc1ccc(-c2nn3c(c2C(N)=O)CN(C(=O)Nc2ccc(C#N)c(C(F)(F)F)c2)CC3)cc1Cl [Compound 253, 2-(3-Chloro-4-methylphenyl)-N^5-(4-cyano-3-(trifluoro-methyl)phenyl)-6,7-dihydropyrazolo [1,5-a]pyrazine-3,5(4H)-dicarboxamide] | – | 0.01 to 10 nM | 0.01 to 10 nM
Cc1ccc(-c2nn3c(c2C(N)=O)CN(C(=O)Nc2ccc4ncsc4c2)CC3)cc1Cl [Compound 254, N^5-(Benzo[d]thiazol-6-yl)-2-(3-chloro-4-methylphenyl)-6,7-dihydropyrazolo[1,5-a] pyrazine-3,5(4H)-dicarboxamide] | 0.01 to 10 nM | 0.01 to 10 nM | –
Cc1ccc(-c2nn3c(c2C(N)=O)CN(C(=O)Nc2ccc(C#N)c(F)c2)CC3)cc1Cl [Compound 255, 2-(3-Chloro-4-methylphenyl)-N^5-(4-cyano-3-fluorophenyl)-6,7-dihydropyrazolo [1,5-a]pyrazine-3,5(4H)-dicarboxamide] | 0.01 to 10 nM | 0.01 to 10 nM | –
Cc1ccc(-c2nn3c(c2C(N)=O)CN(C(=O)Nc2ccc(C#N)c(Cl)c2)CC3)cc1Cl [Compound 256, N^5-(3-Chloro-4-cyanophenyl)-2-(3-chloro-4-methylphenyl)-6,7-dihydropyrazolo[1,5-a] pyrazine-3,5(4H)-dicarboxamide] | 0.01 to 10 nM | 0.01 to 10 nM | –
N#Cc1ccc(NC(=O)N2CCn3nc(-c4cc(Cl)c(F)c(Cl)c4)c(C(N)=O)c3C2)cc1 [Compound 259, N^5-(4-Cyanophenyl)-2-(3,5-dichloro-4-fluorophenyl)-6,7-dihydropyrazolo[1,5-a]pyrazine-3,5(4H)-dicarboxamide] | 0.01 to 10 nM | 0.01 to 10 nM | –
NC(=O)c1c(-c2cc(Cl)c(F)c(Cl)c2)nn2c1CN(C(=O)Nc1ccc(F)c(F)c1)CC2 [Compound 260, 2-(3,5-Dichloro-4-fluorophenyl)-N^5-(3,4-difluorophenyl)-6,7-dihydropyrazolo[1,5-a] pyrazine-3,5(4H)-dicarboxamide] | 0.01 to 10 nM | 0.01 to 10 nM | –
NC(=O)c1c(-c2cc(Cl)c(F)c(Cl)c2)nn2c1CN(C(=O)Nc1cc(Cl)cc(Cl)c1)CC2 [Compound 261, 2-(3,5-Dichloro-4-fluorophenyl)-N^5-(3,5-dichlorophenyl)-6,7-dihydropyrazolo[1,5-a] pyrazine-3,5(4H)-dicarboxamide] | 0.01 to 10 nM | 0.01 to 10 nM | –
NC(=O)c1c(-c2cc(Cl)c(F)c(Cl)c2)nn2c1CN(C(=O)Nc1ccc(C(F)(F)F)cc1)CC2 [Compound 262, 2-(3,5-Dichloro-4-fluorophenyl)-N^5-(4-(trifluoromethyl)phenyl)-6,7-dihydropyrazolo[1,5-a]pyrazine-3,5(4H)-dicarboxamide] | 0.01 to 10 nM | 0.01 to 10 nM | –
CN(C)c1cc(Cl)cc(-c2nn3c(c2C(N)=O)CN(C(=O)Nc2ccc(C#N)c(C(F)(F)F)c2)CC3)c1 [Compound 266, 2-(3-Chloro-5-(dimethylamino)phenyl)-N^5-(4-cyano-3-(trifluoromethyl)phenyl)-6,7-dihydropyrazolo[1,5-a]pyrazine-3,5(H)-dicarboxamide] | 0.01 to 10 nM | 0.01 to 10 nM | –
N#Cc1ccc(NC(=O)N2CCn3nc(-c4cncc(Cl)c4)c(C(N)=O)c3C2)cc1 [Compound 270, 2-(5-Chloropyridin-3-yl)-N^5-(4-cyanophenyl)-6,7-dihydropyrazolo[1,5-a]pyrazine-3,5(4H)-dicarboxamide] | 0.01 to 10 nM | 0.01 to 10 nM | –
N#Cc1ccc(NC(=O)N2CCn3nc(-c4cc(Cl)ccc4Cl)c(C(N)=O)c3C2)cc1 [Compound 272, N^5-(4-Cyanophenyl)-2-(2,5-dichlorophenyl)-6,7-dihydropyrazolo[1,5-a] pyrazine-3,5(4H)-dicarboxamide] | 0.01 to 10 nM | 0.01 to 10 nM | –
N#Cc1ccc(NC(=O)N2CCn3nc(-c4cc(Cl)cc(Cl)c4)c(C(N)=O)c3C2)cc1 [Compound 273, N^5-(4-Cyanophenyl)-2-(3,5-dichlorophenyl)-6,7-dihydropyrazolo[1,5-a] pyrazine-3,5(4H)-dicarboxamide] | 0.01 to 10 nM | 0.01 to 10 nM | –
CS(=O)(=O)Nc1cccc(-c2nn3c(c2C(N)=O)CN(C(=O)Nc2ccc(C#N)cc2)CC3)c1 [Compound 274, N^5-(4-Cyanophenyl)-2-(3-(methylsulfonamido)phenyl)-6,7-dihydropyrazolo[1,5-a] pyrazine-3,5(4H)-dicarboxamide] | 100 to 2000 nM | 100 to 2000 nM | –
Cc1cc(C)cc(-c2nn3c(c2C(N)=O)CN(C(=O)Nc2ccc(C#N)cc2)CC3)c1 [Compound 275, N^5-(4-Cyanophenyl)-2-(3,5-dimethylphenyl)-6,7-dihydropyrazolo[1,5-a] pyrazine-3,5(4H)-dicarboxamide] | 0.01 to 10 nM | 0.01 to 10 nM | –
N#Cc1ccc(NC(=O)N2CCn3nc(-c4ccc5c(c4)OCO5)c(C(N)=O)c3C2)cc1 [Compound 277, 2-(Benzo[d][1,3]dioxol-5-yl)-N^5-(4-cyanophenyl)-6,7-dihydropyrazolo[1,5-a] pyrazine-3,5(4H)-dicarboxamide] | 0.01 to 10 nM | 10 to 100 nM | –
COc1ccc(Cl)cc1-c1nn2c(c1C(N)=O)CN(C(=O)Nc1ccc(C#N)cc1)CC2 [Compound 278, 2-(5-Chloro-2-methoxyphenyl)-N^5-(4-cyanophenyl)-6,7-dihydropyrazolo[1,5-a] pyrazine-3,5(4H)-dicarboxamide] | 10 to 100 nM | 10 to 100 nM | –
CN(C)c1cccc(-c2nn3c(c2C(N)=O)CN(C(=O)Nc2ccc(C#N)cc2)CC3)c1 [Compound 279, N^5-(4-Cyanophenyl)-2-(3-(dimethylamino)phenyl)-6,7-dihydropyrazolo[1,5-a] pyrazine-3,5(4H)-dicarboxamide] | 0.01 to 10 nM | 0.01 to 10 nM | –
COc1cc(-c2nn3c(c2C(N)=O)CN(C(=O)Nc2ccc(C#N)cc2)CC3)ccc1F [Compound 280, N^5-(4-Cyanophenyl)-2-(4-fluoro-3-methoxyphenyl)-6,7-dihydropyrazolo[1,5-a] pyrazine-3,5(4H)-dicarboxamide] | 0.01 to 10 nM | 0.01 to 10 nM | –
CSc1cccc(-c2nn3c(c2C(N)=O)CN(C(=O)Nc2ccc(C#N)cc2)CC3)c1 [Compound 281, N^5-(4-Cyanophenyl)-2-(3-(methylthio)phenyl)-6,7-dihydropyrazolo[1,5-a] pyrazine-3,5(4H)-dicarboxamide] | 0.01 to 10 nM | 0.01 to 10 nM | –
Cc1ccc(-c2nn3c(c2C(N)=O)CN(C(=O)Nc2ccc(C#N)cc2)CC3)cc1C [Compound 282, N^5-(4-Cyanophenyl)-2-(3,4-dimethylphenyl)-6,7-dihydropyrazolo[1,5-a] pyrazine-3,5(4H)-dicarboxamide] | 0.01 to 10 nM | 0.01 to 10 nM | –
CN(C)C(=O)c1cccc(-c2nn3c(c2C(N)=O)CN(C(=O)Nc2ccc(C#N)cc2)CC3)c1 [Compound 283, N^5-(4-Cyanophenyl)-2-(3-(dimethylcarbamoyl)phenyl)-6,7-dihydropyrazolo[1,5-a] pyrazine-3,5(4H)-dicarboxamide] | 100 to 2000 nM | 100 to 2000 nM | –
N#Cc1ccc(NC(=O)N2CCn3nc(-c4cccc(OC(F)(F)F)c4)c(C(N)=O)c3C2)cc1 [Compound 284, N^5-(4-Cyanophenyl)-2-(3-(trifluoromethoxy)phenyl)-6,7-dihydropyrazolo[1,5-a] pyrazine-3,5(4H)-dicarboxamide] | 10 to 100 nM | 10 to 100 nM | –
COc1cc(F)cc(-c2nn3c(c2C(N)=O)CN(C(=O)Nc2ccc(C#N)cc2)CC3)c1 [Compound 285, N^5-(4-Cyanophenyl)-2-(3-fluoro-5-methoxyphenyl)-6,7-dihydropyrazolo[1,5-a] pyrazine-3,5(4H)-dicarboxamide] | 0.01 to 10 nM | 0.01 to 10 nM | –
CS(=O)(=O)c1cccc(-c2nn3c(c2C(N)=O)CN(C(=O)Nc2ccc(C#N)cc2)CC3)c1 [Compound 286, N^5-(4-Cyanophenyl)-2-(3-(methylsulfonyl)phenyl)-6,7-dihydropyrazolo[1,5-a] pyrazine-3,5(4H)-dicarboxamide] | 100 to 2000 nM | 100 to 2000 nM | –
N#Cc1ccc(NC(=O)N2CCn3nc(-c4cccc(Cl)c4Cl)c(C(N)=O)c3C2)cc1 [Compound 287, N^5-(4-Cyanophenyl)-2-(2,3-dichlorophenyl)-6,7-dihydropyrazolo[1,5-a] pyrazine-3,5(4H)-dicarboxamide] | 0.01 to 10 nM | 10 to 100 nM | –
CC(=O)Nc1cccc(-c2nn3c(c2C(N)=O)CN(C(=O)Nc2ccc(C#N)cc2)CC3)c1 [Compound 288, 2-(3-Acetamidophenyl)-N^5-(4-cyanophenyl)-6,7-dihydropyrazolo[1,5-a] pyrazine-3,5(4H)-dicarboxamide] | 100 to 2000 nM | 100 to 2000 nM | –
Cc1cccc(-c2nn3c(c2C(N)=O)CN(C(=O)Nc2ccc(C#N)cc2)CC3)c1 [Compound 289, N^5-(4-Cyanophenyl)-2-(m-tolyl)-6,7-dihydropyrazolo [1,5-a]pyrazine-3,5(4H)-dicarboxamide] | 0.01 to 10 nM | 0.01 to 10 nM | –
CS(=O)(=O)c1ccc(-c2nn3c(c2C(N)=O)CN(C(=O)Nc2ccc(C#N)cc2)CC3)cc1 [Compound 290, N^5-(4-Cyanophenyl)-2-(4-(methylsulfonyl)phenyl)-6,7-dihydropyrazolo[1,5-a] pyrazine-3,5(4H)-dicarboxamide] | 100 to 2000 nM | 100 to 2000 nM | –
N#Cc1ccc(NC(=O)N2CCn3nc(-c4ccc(F)c(F)c4)c(C(N)=O)c3C2)cc1 [Compound 291, N^5-(4-Cyanophenyl)-2-(3,4-difluorophenyl)-6,7-dihydropyrazolo[1,5-a] pyrazine-3,5(4H)-dicarboxamide] | 0.01 to 10 nM | 0.01 to 10 nM | –
